Results taken from patent publication US20130296455A1, “NOVEL COMPOUND, DYE AND COLORED PHOTOSENSITIVE COMPOSITION” (ADEKA CORPORATION, priority 2011, published 2013).

Columns and labels:
Assay type in all cases: physicochemical
[1] = Evaluation of heat-resistance by TG-DTA
Protocol: Compounds Nos. 1, 2, 5 and 46 and Comparative Compounds Nos. 1 and 2 obtained above were analyzed by TG-DTA to thereby measure the melting points and temperatures at 10% weight loss. The results are shown in [Table 4].

[2] = Evaluation of absorption wavelength property in CHCl3 solution; conditions: maximum absorption wavelength in CHCl3 solution
Protocol: (§1) Bis(4-formylphenyl)phenylamine (0.90 g, 3 mmol), ethyl cyanoacetate (0.75 g, 6.6 mmol) and ethanol (1.26 g) were added to a reaction container and heated to 50° C. under stirring. Triethylamine (0.06 g, 0.6 mmol) was then added dropwise, a reaction was conducted at 50° C. for 2 hours, and the reactant was cooled to room temperature. The reaction solution was subjected to liquid separation with ethyl acetate/water, the organic layer was dried under a reduced pressure, and the precipitated solid was washed with hexane to thereby give 1.13 g (yield 95.2%) of a yellow powder. That the obtained yellow powder was the intended substance was confirmed by ^1H-NMR and IR. Furthermore, the solubility and absorption wavelength properties (absorption wavelength λmax and absorption coefficient ∈) of compound No. 1 were measured. PGMEA was added dropwise to 0.1 g of the compound under stirring, and the solubility was defined as the concentration at the time when PGMEA had completely dissolved the compound. Furthermore, the absorption wavelength properties were measured in a CHCl3 solution.
The maximum absorption wavelengths of Compounds Nos. 1, 2, 5 and 46 and Comparative Compounds Nos. 1 and 2 obtained above were each evaluated in a CHCl3 solution. The results are shown in [Table 5].

[3] = Evaluation of heat-resistance by calcination of coating of colored alkali-developable photosensitive composition; conditions: for relative intensity 230° C., 30 min: absorbance of coating at λmax after calcination 230° C.×30 min, before calcination (after exposure to light) = 100; for λmax: coating of colored alkali-developable photosensitive composition on glass substrate
Protocol: No. 3 obtained above, and comparative colored alkali-developable photosensitive composition No. 1 were each applied to a glass substrate under conditions of 410 rpm×7 sec, and dried on a hot plate (90° C., 90 sec). The obtained coating was exposed to light by a ultrahigh pressure mercury lamp (150 mJ/cm^2). The coating after the exposure to light was calcined under conditions of 230° C.×30 min. The absorbance of the coating before the calcination (after the exposure to light) and the absorbance of the coating after the calcination at the maximum absorption wavelength (λmax) of the compound (dye) as used were measured, and considering the absorption of the coating before the calcination (after the exposure to light) as 100, the absorbance of the coating after the calcination closer to 100 was evaluated to give higher heat-resistance. The results are shown in [Table 6].

Solubility in PGMEA = conditions: PGMEA added dropwise to 0.1 g of compound; concentration when completely dissolved
Protocol: as §1

## CCOC(=O)/C(C#N)=C/c1ccc(N(CC)CC)cc1 [Comparative Compound No. 1, reference compound]
[1]
  temperatures at 10% weight loss: 259 °C
[2]
  λmax: 430 nm
[3]
  relative intensity 230° C., 30 min: 12.5
  λmax: 430 nm

## CCOCCOC(=O)/C(C#N)=C/c1ccc(N(CC)CC)cc1 [Comparative Compound No. 2, reference compound]
[1]
  temperatures at 10% weight loss: 252 °C
[2]
  λmax: 432 nm

## CCOC(=O)/C(C#N)=C/c1ccc(N(c2ccccc2)c2ccc(/C=C(\C#N)C(=O)OCC)cc2)cc1 [Compound No. 1]
Solubility in PGMEA
  solubility: 4.6 wt %
[1]
  temperatures at 10% weight loss: 355 °C
[2]
  λmax: 460 nm
[3]
  relative intensity 230° C., 30 min: 94.9
  λmax: 458 nm

## CCOC(=O)/C(C#N)=C/c1ccc(N(c2ccc(/C=C(\C#N)C(=O)OCC)cc2)c2ccc(/C=C(\C#N)C(=O)OCC)cc2)cc1 [Compound No. 2]
Solubility in PGMEA
  solubility: 3.5 wt %
[1]
  temperatures at 10% weight loss: 370 °C
[2]
  λmax: 452 nm
[3]
  relative intensity 230° C., 30 min: 98.5
  λmax: 452 nm

## CCOC(=O)/C(C#N)=C/c1ccc(N2CCN(c3ccc(/C=C(\C#N)C(=O)OCC)cc3)CC2)cc1 [Compound No. 5]
Solubility in PGMEA
  solubility: 0.1 wt %
[1]
  temperatures at 10% weight loss: 345 °C
[2]
  λmax: 423 nm

## CCOC(=O)/C(C#N)=C/c1ccc(N(CC)CCCCCCN(CC)c2ccc(/C=C(\C#N)C(=O)OCC)cc2)cc1 [Compound No. 46]
Solubility in PGMEA
  solubility: 0.5 wt %
[1]
  temperatures at 10% weight loss: 346 °C
[2]
  λmax: 430 nm
[3]
  relative intensity 230° C., 30 min: 99.9
  λmax: 436 nm
